Source: US20090025102A1, “GLUTAMATE RECEPTOR […] AND PROTEINS FOR ENHANCING NITROGEN U[…] CROP PLANTS” (PIONEER HI-BRED INTERNATIONAL, INC., priority 2007, published 2009)

Legend:
AtGLR-AP knockout lines [1] = conditions: lines deficient in AtGLR1.1, uM 200, previously demonstrated; cited from earlier work
[2] = tested on: PSD1.1 and PSD2.1 KO plants; test: Growth assay of PSD1.1 and PSD2.1 KO plants on media containing DNQX; format: in vivo, Arabidopsis; conditions: 200 or 400 μM DNQX and 3% sucrose, 7 days
Method: Growth assays for the PSD1.1 and PSD2.1 KO plants were undertaken. Plants were sown on different media, refrigerated overnight, then incubated in the standard growth conditions for 7 days. The short vernalization was used as that is what has been typically used in this lab for DNQX experiments. […] When grown in the presence of 3% sucrose, both on MS and media lacking nitrogen PSD1.1 and PSD2.1 looks similar to Col-0.

AtGLR-AP knockout lines [3] = test: Germination bioassay with the iGLR antagonist DNQX; format: in vivo, Arabidopsis
Method: Therefore we used a similar approach to test the sucrose sensitivity of the homozygous AtGLR-APs lines described above by conducting vertical plate assays on MS plates minus N and supplemented with increasing concentrations of sucrose. […] We also developed a short term N-sensitivity bioassay.
Bioassay, iGLR Antagonist DNQX
However, germination of the GRASP2.1-1 line was not affected when DNQX was added to the media.

O=c1[nH]c2cc([N+](=O)[O-])c([N+](=O)[O-])cc2[nH]c1=O [DNQX, 6,7-dinitroquinoxaline-2,3-[1H,4H]-dione]
sensitivity of Arabidopsis lines deficient in AtGLR1.1 to the iGLR antagonist (AtGLR-AP knockout lines [1]): sensitive | difference between Col-0 and the two KO lines [2]: No obvious difference | germination when DNQX was added to the media (AtGLR-AP knockout lines [3]; GRASP2.1-1 line): not affected | germination on media supplemented DNQX (AtGLR-AP knockout lines [3]; GRASP2.3-6 line): noticeable reduction in germination | decrease in germination (AtGLR-AP knockout lines [3]; PSD1.1 knockout, 200 uM DNQX): 35-40%
